Earlier results on one substance are cited in patent US20250368755A1, “PEPTIDE THAT SP[…] TO PPC REGION OF SARS-COV-2 SPIKE PROTEIN AND COMPOSITION FOR […]-COV-2 INFECTION USING THE SAME” (priority 2024, published 2025).

The data set deals with S1/S2 region. The conditions noted are these: known value; read-out: binding affinity of furin for the cleavage of S1/S2 region; cited from earlier work.

Take furin: the Kd is 0.016 µM.
